Legend:
Experiment in all cases: relative viability (nuclei count vs DMSO), 5 days (fraction); higher = more cells survive
[1] = compound: C#Cc1cccc(Nc2ncnc3cc(OC)c(OCCCCCCC(=O)NO)cc23)c1 [CUDC-101] + CC1(C)CCC(c2ccc(Cl)cc2)=C(CN2CCN(c3ccc(C(=O)NS(=O)(=O)c4ccc(N[C@H](CCN5CCOCC5)CSc5ccccc5)c(S(=O)(=O)C(F)(F)F)c4)cc3)CC2)C1 [Navitoclax] (partner 0.5 µM)
Outline: (§1)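 Cells from lung cancer lines were seeded into 1536-well plates and, one day later, dosed by pin tool. Treatments were either a single drug or a fixed dose of an anchor drug with five library-drug doses (not always all listed) in √10 steps. After 5 days, nuclei were stained in a one-step fixation (final 0.05% Triton X-100, 1% formaldehyde, 1 ug/ml Hoechst) and counted on 4× images, and relative viability is the treated-to-vehicle nuclei ratio, as the median of duplicate plates.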

[2] = compound: COc1cc(N2CCC(N3CCN(C)CC3)CC2)ccc1Nc1ncc(Cl)c(Nc2ccccc2S(=O)(=O)C(C)C)n1 [NVP-TAE684] + CC1(C)CCC(c2ccc(Cl)cc2)=C(CN2CCN(c3ccc(C(=O)NS(=O)(=O)c4ccc(N[C@H](CCN5CCOCC5)CSc5ccccc5)c(S(=O)(=O)C(F)(F)F)c4)cc3)CC2)C1 [Navitoclax] (partner 0.5 µM)
Outline: as §1

[3] = compound: COc1cc(N2CCC(N3CCN(C)CC3)CC2)ccc1Nc1ncc(Cl)c(Nc2ccccc2S(=O)(=O)C(C)C)n1 [NVP-TAE684] + C[C@@H](Oc1cc(-c2cnn(C3CCNCC3)c2)cnc1N)c1c(Cl)ccc(F)c1Cl [Crizotinib] (partner 1 µM)
Outline: as §1

[4] = compound: COc1cc2/c(=N/c3ccc(Br)cc3F)nc[nH]c2cc1OCC1CCN(C)CC1 [Vandetanib] + O=C(c1cc(Cc2n[nH]c(=O)c3ccccc23)ccc1F)N1CCN(C(=O)C2CC2)CC1 [Olaparib] (partner 8 µM)
Outline: as §1

[5] = compound: COc1cc(N2CCC(N3CCN(C)CC3)CC2)ccc1Nc1ncc(Cl)c(Nc2ccccc2S(=O)(=O)C(C)C)n1 [NVP-TAE684] + Nc1nc2[nH]cc(CCc3ccc(C(=O)N[C@@H](CCC(=O)O)C(=O)O)cc3)c2c(=O)[nH]1 [Pemetrexed] (partner 0.2 µM)
Outline: as §1

Cell Line: NCI-H1993
- relative viability ([1]; first compound 0.01 µM): 0.827
- relative viability ([1]; first compound 0.03162 µM): 0.884
- relative viability ([1]; first compound 0.1 µM): 0.743
- relative viability ([1]; first compound 0.3162 µM): 0.771
- relative viability ([1]; first compound 1 µM): 0.558
- relative viability ([2]; first compound 0.6325 µM): 0.791
- relative viability ([2]; first compound 2 µM): 0.696
- relative viability ([3]; first compound 0.6325 µM): 0.709
- relative viability ([3]; first compound 2 µM): 0.548
- relative viability ([4]; first compound 0.02 µM): 1.06
- relative viability ([4]; first compound 0.06325 µM): 0.977
- relative viability ([4]; first compound 0.2 µM): 1.16
- relative viability ([4]; first compound 0.6325 µM): 0.911
- relative viability ([4]; first compound 2 µM): 0.893
- relative viability ([5]; first compound 0.2 µM): 0.518
- relative viability ([5]; first compound 0.6325 µM): 0.555
- relative viability ([5]; first compound 2 µM): 0.436

Cell Line: ChaGo-K-1
- relative viability ([1]; first compound 0.01 µM): 1.34
- relative viability ([1]; first compound 0.03162 µM): 1.48
- relative viability ([1]; first compound 0.1 µM): 1.04
- relative viability ([1]; first compound 0.3162 µM): 1.06
- relative viability ([1]; first compound 1 µM): 0.92
- relative viability ([2]; first compound 0.2 µM): 1.54
- relative viability ([2]; first compound 0.6325 µM): 0.644
- relative viability ([2]; first compound 2 µM): 1.03
- relative viability ([3]; first compound 0.2 µM): 1.09
- relative viability ([3]; first compound 0.6325 µM): 1.11
- relative viability ([3]; first compound 2 µM): 0.713
- relative viability ([4]; first compound 0.02 µM): 0.415
- relative viability ([4]; first compound 0.06325 µM): 0.427
- relative viability ([4]; first compound 0.2 µM): 0.161
- relative viability ([4]; first compound 0.6325 µM): 0.411
- relative viability ([4]; first compound 2 µM): 0.438
- relative viability ([5]; first compound 0.2 µM): 0.273
- relative viability ([5]; first compound 0.6325 µM): 0.246
- relative viability ([5]; first compound 2 µM): 0.264

Cell Line: NCI-H3122
- relative viability ([1]; first compound 0.01 µM): 0.982
- relative viability ([1]; first compound 0.03162 µM): 0.987
- relative viability ([1]; first compound 0.1 µM): 1.06
- relative viability ([1]; first compound 0.3162 µM): 1.05
- relative viability ([1]; first compound 1 µM): 1.06
- relative viability ([2]; first compound 0.2 µM): 0.282
- relative viability ([2]; first compound 0.6325 µM): 0.525
- relative viability ([2]; first compound 2 µM): 0.176
- relative viability ([3]; first compound 0.2 µM): 0.243
- relative viability ([3]; first compound 0.6325 µM): 0.216
- relative viability ([3]; first compound 2 µM): 0.179
- relative viability ([4]; first compound 0.02 µM): 0.617
- relative viability ([4]; first compound 0.06325 µM): 0.576
- relative viability ([4]; first compound 0.2 µM): 0.232
- relative viability ([4]; first compound 0.6325 µM): 0.567
- relative viability ([4]; first compound 2 µM): 0.621
- relative viability ([5]; first compound 0.2 µM): 0.159
- relative viability ([5]; first compound 0.6325 µM): 0.117
- relative viability ([5]; first compound 2 µM): 0.114

Cell Line: NCI-H1651
- relative viability ([1]; first compound 0.01 µM): 1.13
- relative viability ([1]; first compound 0.03162 µM): 0.938
- relative viability ([1]; first compound 0.1 µM): 1.22
- relative viability ([1]; first compound 0.3162 µM): 1.04
- relative viability ([1]; first compound 1 µM): 0.887
- relative viability ([2]; first compound 0.2 µM): 1.41
- relative viability ([2]; first compound 0.6325 µM): 1.07
- relative viability ([2]; first compound 2 µM): 0.964
- relative viability ([3]; first compound 0.2 µM): 0.893
- relative viability ([3]; first compound 0.6325 µM): 0.836
- relative viability ([3]; first compound 2 µM): 0.836
- relative viability ([4]; first compound 0.02 µM): 0.176
- relative viability ([4]; first compound 0.06325 µM): 0.179
- relative viability ([4]; first compound 0.2 µM): 0.17
- relative viability ([4]; first compound 0.6325 µM): 0.165
- relative viability ([4]; first compound 2 µM): 0.19
- relative viability ([5]; first compound 0.2 µM): 0.594
- relative viability ([5]; first compound 0.6325 µM): 0.566
- relative viability ([5]; first compound 2 µM): 0.565
